# Results taken from patent publication US20090238792A1, “SUPPRESSION OF POSTOPERATIVE ILEUS” (University of Pittsburgh of the Commonwealth System of …, priority 2007, published 2009).
# Experiments:
# [1] = tested on: jejunal circular smooth muscle; test: In vitro bethanechol stimulated contractile activity of jejunal circular muscle strips; assay type: in vivo, rat; details: for mean contractile force, bethanechol stimulated: manipulated rats, 100 mM bethanechol, control 3.2±0.2, SM vehicle 1.9±0.1
# Method: (§1) Age matched animals treated with vehicle (normal saline) or valine (263.5 mg/kg, osmotic control) at appropriate time points and at equal volumes served as controls.
# (§2) The rodent intestine was subjected to a standardized degree of surgical manipulation as described previously (14). Rats were anesthetized by isoflurane inhalation and the abdomen was opened by a midline laparotomy. The cecum was eventrated and laid out onto a moist gauze. Then, the intestine was inspected along its length and gently compressed using moist cotton applicators. The midline incision was closed by two layers of continuous sutures. All operative procedures were performed under sterile conditions with the intestine being handled only by instruments and never touched directly. Animals were killed at specific time points postoperatively by isoflurane anesthesia inhalation overdose and heart incision.
# Mechanical in vitro activity of the rat mid-jejunum was evaluated at 24 hours postoperatively using smooth muscle strips of the circular muscularis as described previously (rats: N=5-11) (14). After dissection and a 30 minute equilibration period, the individual muscles were incrementally stretched to L0. Then after recording spontaneous contractility for 30 minutes, dose response curves were generated using increasing concentrations of the muscarinic agonist bethanechol ([…]) for 10 minutes and intervening wash periods (KRB) of 10 minutes. The contractile response was recorded and analyzed as g/mm2/sec over a 10 minute period.
# (§3) Methods: ACI-rats (180-220 g) underwent standardized surgical manipulation of the intestine. […] Age matched animals treated with vehicle or valine (osmotic control) at appropriate time points and at equal volumes served as controls. […] Postoperative mediator mRNA expression in the intestinal muscularis was determined by real-time RT PCR. Leukocyte extravasation was investigated in muscularis whole-mounts. Nitrite production was measured in muscularis cultures. In vivo transit of FITC-dextran was measured using geometric center analysis (GC). In vitro circular muscle contractility was assessed in a standard organ bath. Statistical analysis: unpaired Student t test, p<0.05, mean±SEM.
# IL-6 mRNA = test: Real-time RT-PCR of muscularis IL-6 mRNA 3 hours postoperatively; assay type: in vivo, rat
# Method: as §1, §2
# (§4) mRNA Expression Analysis: Postoperative mediator mRNA expressions in the small intestinal muscularis were analyzed using SYBR Green two-step real-time RT-PCR as previously described, (N=4-6). […] Total mRNA extraction was performed using the guanidium-thiocyanate phenol-chloroform extraction method. Equal aliquots (200 ng) of total RNA from each sample, quantified by spectrophotometer, were processed for complimentary DNA (cDNA) synthesis. Primer sequences were used as described previously (tumor necrosis factor-a, TNF-a) (35), or designed according to published sequences 36-41, (GenBank accession numbers: NM_017008 [glyceraldehyde phosphate dehydrogenase (GAPDH)], AF233596 [cyclo-oxygenase-2 (COX-2)], NM_012967 [intercellular adhesion molecule-1 (ICAM-1)], M26744 [interleukin-6 (IL-6)] and NM_012611 [inducible nitric oxide synthase (iNOS)]), using Primer Express software (PE Applied Biosystems, Foster City, Calif.) and purchased from Life Technologies (Rockville, Md.). GAPDH was used as an endogenous control. The efficiency and equality of the real-time PCR primer pairs were determined by amplifying serial dilutions of muscularis cDNA. For each target gene different MgCl2 (3 to 5 mM) concentrations were tested to optimize the PCR amplification. […] Relative quantification was performed using the comparative CT method as described by Schmittgen et al. (42).
# Methods: ACI-rats (180-220 g) underwent standardized surgical manipulation of the intestine. […] Postoperative mediator mRNA expression in the intestinal muscularis was determined by real-time RT PCR. […] Nitrite production was measured in muscularis cultures. In vivo transit of FITC-dextran was measured using geometric center analysis (GC). In vitro circular muscle contractility was assessed in a standard organ bath. […]
# ICAM-1 mRNA = details: 3 hours postoperatively
# Method: as §1, §2
# as §4, with “amplification. Agarose gel electrophoretic analysis was used to verify the presence of a single product and that the amplified product corresponded to size predicted for the amplicon. The PCR reaction mixture was prepared using the SYBR Green PCR Core Reagents (PE Applied Biosystems, Foster City, Calif.). PCR conditions on an ABI PRISM 7700 Sequence Detection System (PE Applied Biosystems, Foster City, Calif.) were as recommended by the manufacturer. Each sample was estimated in duplicate.” for “amplification.”
# as §3
# TNF-α mRNA = details: 3 hours postoperatively
# Method: as §1, §2
# as §4, with “amplification. Agarose gel electrophoretic analysis was used to verify the presence of a single product and that the amplified product corresponded to size predicted for the amplicon. The PCR reaction mixture was prepared using the SYBR Green PCR Core Reagents (PE Applied Biosystems, Foster City, Calif.). PCR conditions on an ABI PRISM 7700 Sequence Detection System (PE Applied Biosystems, Foster City, Calif.) were as recommended by the manufacturer. Each sample was estimated in duplicate.” for “amplification.”
# as §3
# iNOS mRNA = details: 3 hours postoperatively
# Method: as §1, §2
# as §4, with “amplification. Agarose gel electrophoretic analysis was used to verify the presence of a single product and that the amplified product corresponded to size predicted for the amplicon. The PCR reaction mixture was prepared using the SYBR Green PCR Core Reagents (PE Applied Biosystems, Foster City, Calif.). PCR conditions on an ABI PRISM 7700 Sequence Detection System (PE Applied Biosystems, Foster City, Calif.) were as recommended by the manufacturer. Each sample was estimated in duplicate.” for “amplification.”
# as §3
# COX-2 mRNA = details: glycine 170 mg/kg, 3 hours postoperatively; SM 3.2-fold; not significant
# Method: as §1
# as §2, with “Animals were killed at specific time points postoperatively by isoflurane anesthesia inhalation overdose and heart incision.” left out
# mRNA Expression Analysis: Postoperative mediator mRNA expressions in the small intestinal muscularis were analyzed using SYBR Green two-step real-time RT-PCR as previously described, (N=4-6). […] Equal aliquots (200 ng) of total RNA from each sample, quantified by spectrophotometer, were processed for complimentary DNA (cDNA) synthesis. […] The efficiency and equality of the real-time PCR primer pairs were determined by amplifying serial dilutions of muscularis cDNA. […] Relative quantification was performed using the comparative CT method as described by Schmittgen et al. (42).
# [2] = tested on: MPO positive leukocytes in the intestinal muscularis; test: Myeloperoxidase (MPO) histochemistry: leukocyte infiltration in muscularis whole-mounts; assay type: in vivo, rat; details: for infiltrating MPO positive leukocytes: manipulated rats, 24 h postoperatively, SM vehicle 95±6.4
# Method: as §1, §2
# Histochemistry and Immunohistochemistry: Leukocyte infiltration was quantified on rat whole-mounts of the intestinal muscularis as described previously (N=6-8) (43). Myeloperoxidase (MPO) positive cells were detected using a mixture of 30 mg Hanker-Yates reagent, 30 ml KRB and […] 3% hydrogen peroxide for 10 minutes. Leukocytes were counted in 5 randomly chosen areas in each specimen (3 specimen per animal) at a magnification of 200×.
# as §3
# [3] = tested on: interleukins and chemokines
# From the text: Luminex Multiplex Bead Immunoassays: The release of […] inflammatory analytes into the mouse tissue culture supernatant, obtained as above, was quantified with a Luminex 100™ using microsphere-based multiplexing technology. The mouse cytokine twenty plex immune kit was comprised of analyte specific components for the simultaneous measurement of the following mouse cytokines (FGF-basic, IL-1α, IL-1β, IL-2, IL-4, IL-5, IL-6, IL-10, IL-12p70, IL-13, IL-17, TNF-α, IFN-γ, GM-CSF, KC, MCP-1, MIG, MIP-1α, IP-10 and VEGF) (Invitrogen, Carlsbad, Calif.).
# [4] = 170 mg/kg intravenously; cited from earlier work
structure (smiles),measurement,setting,value
NCC(=O)O [glycine],amelioration of postoperative muscularis contractility,"[1]; Example 5, glycine (170 mg) i.v. 1 hour prior to surgery",54%
same,"mean contractile force, bethanechol stimulated",[1]; 85 mg/kg glycine,2.4±0.3 g/mm2/s
same,"mean contractile force, bethanechol stimulated",[1]; 170 mg/kg glycine or valine pretreatment,2.9±0.3 g/mm2/s
same,IL-6 mRNA induction vs non-operated vehicle treated controls,"IL-6 mRNA; glycine pretreatment, 3 hours postoperatively, manipulation alone 8521 fold",2742 fold
same,mediator mRNA levels in non-operated animals vs non-operated vehicle rats,IL-6 mRNA; non-operated glycine injected rats,did not differ
same,postoperative induction of IL-6 mRNA,"IL-6 mRNA; surgically manipulated rats, 3 hours postoperatively",significantly attenuated
same,ICAM-1 mRNA induction vs non-operated vehicle treated controls,"ICAM-1 mRNA; glycine pretreatment, manipulation alone 21 fold",14 fold
same,postoperative induction of ICAM-1 mRNA,ICAM-1 mRNA; surgically manipulated rats,attenuation
same,TNF-α mRNA induction vs non-operated vehicle treated controls,"TNF-α mRNA; glycine pretreatment, manipulation alone 3.4 fold",1.9 fold
same,postoperative induction of TNF-α mRNA,TNF-α mRNA; surgically manipulated rats,attenuation
same,surgical induction of iNOS mRNA,iNOS mRNA; SM vehicle 197.1-fold,significantly suppressed
same,iNOS mRNA induction vs non-operated vehicle treated controls,"iNOS mRNA; glycine pretreatment, manipulation alone 197 fold",17 fold
same,COX-2 mRNA postoperative upregulation,COX-2 mRNA,2.3 fold
same,reduction of infiltrating leukocytes compared to manipulated vehicle pretreated rats,[2]; glycine 85 mg/kg,18%
same,reduction of infiltrating leukocytes compared to manipulated vehicle pretreated rats,[2]; glycine 170 mg/kg,27%
same,infiltrating MPO positive leukocytes,[2]; 85 mg/kg glycine,78±5.1 cells/field at 200×
same,infiltrating MPO positive leukocytes,[2]; glycine 170 mg/kg or valine (263.5 mg/kg),69±5.7 cells/field at 200×
same,MPO positive cells,"[2]; rats without intestinal manipulation, glycine injected, vehicle 2±0.9",2±0.5 cells/field at 200× magnification
same,"interleukins and chemokines released into organ culture media, colonic muscularis externa","[3]; manipulated colonic muscularis, significance reached by IL-5, IL-6, IL-10, IL-12, KC, MCP-1, MIP1-α and GM-CSF",tended to be quelled
same,"interleukins and chemokines released into organ culture media, jejunal muscularis externa","[3]; manipulated jejunal muscularis, significance reached by IL-6, IP-10 and MIP1-α",tended to be quelled
same,"production of chemokines (IP-10, KC, MCP-1, MIP-1α, VEGF and GM-CSF)","[3]; organ cultured muscularis of jejunum and colon, more dramatic in colon",trend for the inhibition
same,"release of interleukins 5, 6, 10 and 12","[3]; organ cultured muscularis of jejunum and colon, more pronounced in colon",decrease
same,increase of glycine serum levels,[4],about sevenfold
